# From EP3939578A1, “COMPOUNDS FOR TREATMENT OR PREVENTION OF AN INFECTION RESULTING FROM A CORONAVIRUS AND/OR A CORONAVIRUS-INDUCED DISEASE” (Novaremed Ltd., priority 2020, dated 2022)
# Entries after “also recorded” stand apart in the source; their conditions may differ.
# Experiments:
# [1] = Gravimetric Vapour Sorption (GVS); type: physicochemical
# Experimental: Approximately 10 mg of sample was placed into a wire-mesh vapour sorption balance pan and loaded into an 'IgaSorp' vapour sorption balance (Hiden Analytical Instruments). The sample was then dried by maintaining a 0% humidity environment until no further weight change was recorded. Subsequently, the sample was subjected to a ramping profile from 0 - 90 % RH at 10 % RH increments, maintaining the sample at each step until equilibration had been attained (99% step completion). Upon reaching equilibration, the % RH within the apparatus was ramped to the next step and the equilibration procedure repeated. After completion of the sorption cycle, the sample was then dried using the same procedure. The weight change during the sorption/desorption cycles were then monitored, allowing for the hygroscopic nature of the sample to be determined.
# [2] = Dog bioavailability tests of polymorphs 1 and 2; type: in vivo; settings: compared with polymorph 1
# Source text: The bioavailability of polymorphs 1 and 2 has also been tested and made available in PCT/EP2020/051528 as Example 3 and is incorporated herein by reference.
Structure (SMILES),"rapid moisture uptake between 70% and 80% RH ([1]; GVS, between 70% and 80% RH, hysteresis between adsorption and desorption cycles) [%]","weight increase in second adsorption cycle ([1]; GVS, second adsorption cycle, at an RH of 40%, different form arising after the first cycle) [%]","weight increase to 70% RH ([1]; GVS, to 70% RH) [%]","overall weight loss by the end of the two adsorption/desorption cycles ([1]; GVS, after two adsorption/desorption cycles, sharp weight loss at 90% RH) [%]","weight gain to 80% RH ([1]; GVS, to 80% RH) [%]",change of polymorphic form (XRPD) after GVS ([1]; XRPD after two adsorption/desorption cycles),bioavailability [2]
"C[C@H](O)COC[C@H](Cc1ccc(O)cc1)NC(=O)CCc1ccccc1 [polymorph 1, (S,S)-2-N(3-O-(propan-2-ol)-1-propyl-4-hydroxybenzene)-3-phenylpropylamide]",5.6,> 2,~1.3,,,,
"C[C@H](O)COC[C@H](Cc1ccc(O)cc1)NC(=O)CCc1ccccc1 [polymorph 2, (S,S)-2-N(3-O-(propan-2-ol)-1-propyl-4-hydroxybenzene)-3-phenylpropylamide]",,,,~1,0.6,no change of polymorphic form,higher than for polymorph 1; also recorded: better bioavailability as compared to polymorph 1; also recorded: exceptionally high
